The text below walks through data of patent publication US20090012014A1, “Compound, Composition and a Process Thereof” (INDUS BIOTECH PVT. LTD, priority 2007, published 2009).

For one data set, the system named is TNF-α. As to the kind of experiment: TNF-α level in serum of FCA induced arthritic rat. The data set is classed as in vivo. The procedure:
(§1) This activity mimics the onset of autoimmune damage to joints and tests the efficiency of drug against this damage. Leflunamide is taken as positive control. Here Swiss Wistar rats are treated with Freunds Complete Adjuvant (CFA) to induce chronic inflammation symptoms similar to rheumatis diseases. The symptoms appear by 13th day. The drug treatment is started from 13th day to 23rd day for 10 days.
Effect of Test compound and standard drug Celecoxib on TNF-α level in FCA induced arthritis rat. The serum from the FCA induced arthritic rat was examined for Tumor necrosis factor alpha. The experimental protocol was same as example no.

Data set [1] relates to paw edema in Carrageenan model. Kind of data set: Acute study: Carrageenan induced paw edema. Format: in vivo, Swiss Wistar rats. The note with it: Dose 10 mg/kg; paw volume at 3 hrs. The procedure:
These tests are for the inhibition of inflammation caused by prostaglandins in short period of time. This can be tested in animal (Swiss Wistar rats) as per well known protocols which are treated with Carrageenan. This model tests out anti-inflammatory activity caused by prostaglandin inhibition. Celecoxib is given as a positive control to do a comparison and evaluate the efficacy of anti-inflammatory purified extract as described above in Prostaglandin inhibition in 3 hrs.
Paw Volume measured is compared with Control group and standard drug, celecoxib. Paw volume initial to the paw volume at 1 h, 2 h, 3 h is measured and peak inhibition, which is at 3 hrs is noted down. In this model efficacy as well as dosage of drug is arrived by considering peak % inhibition. […] This is also not statistically significant.

The subject of another data set is gastric mucosa. As to the kind of experiment: Gastric ulcerogenic effects after repeated oral administration. Format: in vivo, male Swiss Wistar rats. An excerpt: Gastric ulcerogenic effects of Test compound and celecoxib after repeated oral administration for 7 consecutive days to the male Swiss Wistar rats.
In the control group, structure of the gastric mucosa appears normal.

The next data set has as its system Cotton pellet Granuloma. Kind of data set: Sub acute study: cotton pellet granuloma. The data set is classed as in vivo, Swiss Wistar rats. The note with it: Dose 10 mg/kg; dried pellet weight after 7 days. Here is the method: This evaluates inflammation over a period of 7 days. This is done by classical animal model (in Swiss Wistar tats) of cotton pallet granuloma. Celecoxib is a positive control for comparison of the efficacy of Test Compound.
100 mg per kg is the optimal dose. A comparison is made with Celecoxib.

For another data set, the system named is C-reactive protein. As to the kind of experiment: C-reactive protein test (CRP test kit) in FCA arthritis model. The data set is classed as in vivo, Swiss Wistar rats. The note with it: CRP test kit, precipitate. The procedure:
This activity mimics the onset of autoimmune damage to joints and tests the efficiency of drug against this damage. Leflunamide is taken as positive control. Here Swiss Wistar rats are treated with Freunds Complete Adjuvant (CFA) to induce chronic inflammation symptoms similar to rheumatis diseases. The symptoms appear by 13th day. The drug treatment is started from 13th day to 23rd day for 10 days. […] In this method the CRP test kit ([…], Dreadnought Trading Estate Bridgeport Dorset DT6 5BU UK) was used for the measurement of CRP. The results are expressed either […] or -ve depending on the formation of precipitate Normal range of CRP: up to 6 mg/L. Below this level is considered to be negative.

In a further data set the test system is FCA induced arthritis. Kind of data set: Chronic study: FCA (Freunds Complete Adjuvant) induced arthritis. Format: in vivo, Swiss Wistar rats. Conditions: Dose 10 mg/kg. The procedure:
as §1
In addition, a disseminated arthritic reaction (secondary response) developed from […] alter FCA injection. The swelling was observed both in the injected paw and in the non-injected contra lateral paw. The reduction of the planter volume was statistically significant for both hind legs. The test compound gave a very impressive reduction of 52% at 100 mg per kg dose which is statistically significant. This compared very well with DMARD drug Leflunomide. However, Leflunomide is highly nephrotoxic and cannot be administered for a long time.

The mark [2] stands for this setting: male, Swiss Wistar, rat, in vivo, po, 5 mg/kg, 7 days.

Marks after values point to notes of the source that are not given here.

As for `Cc1ccc(-c2cc(C(F)(F)F)nn2-c2ccc(S(N)(=O)=O)cc2)cc1` [Celecoxib, reference compound], the “Concentration of TNF-α in pg/mL Day 0” value with TNF-α (Day 0) is reported as 28.9 pg/mL. Further, the “Concentration of TNF-α in pg/mL Day 13” value with TNF-α (Day 13) is listed as 47.9 pg/mL. Also, the “Concentration of TNF-α in pg/mL Day 21” value in the data set on TNF-α (Day 21) worked out at 33.6 pg/mL. In data set [1], the “Anti-inflammatory activity (% Inhibition) in Carrageenan model In 3 Hrs.” value is reported as 45.2** %. For the same compound, the “Mean score of Lesion intensity” value in the data set with gastric mucosa (Dose 5 mg/kg p.o., 7 consecutive days) amounted to 1.6. In addition, in the data set with gastric mucosa (setting [2]), the “Average of no. of ulcer per animal” value was 2, the “No. of animals with ulcer” value was found to be 2, the “No. of animals with ulcer (%)” value came out at 33.3% and the “Ulcer Index (UI)” value turned out to be 3.7. The “Anti-inflammatory activity (% Inhibition) in Cotton pellet Granuloma” value in the data set with Cotton pellet Granuloma is on record as 43.2** %.
With `Cc1oncc1C(=O)Nc1ccc(C(F)(F)F)cc1` [Leflunamide, reference compound], in the data set on C-reactive protein (After 10 Day Treatment), the “C-reactive protein After 10 Day Treatment” value is reported as “Negative (Normal range of CRP: up to 6 mg/L. Below this level is considered to be negative)”. Moreover, the “C-reactive protein Before Treatment” value in the data set on C-reactive protein (Before Treatment) is listed as “Negative (Normal range of CRP: up to 6 mg/L. Below this level is considered to be negative)”. The “Anti-inflammatory activity (% Inhibition) in FCA induced arthritis Day 18” value with FCA induced arthritis (Day 18, treatment from 13th day) is 35.22* %. The “Anti-inflammatory activity (% Inhibition) in FCA induced arthritis Day 23” value in the data set on FCA induced arthritis (Day 23, treatment 13th to 23rd day) is 76.55** %.
